Assay results as given in patent US9763445B2, “Safened herbicidal compositions comprising a pyridine carboxylic acid herbicide” (Dow AgroSciences, LLC, priority 2014, dated 2017).

Key:
giant foxtail (SETFA) = assay: Postemergence greenhouse trial, % visual injury on giant foxtail; assay type: in vivo, Setaria faberi; details: alone, 35 g/ha
Experimental: Seeds of the desired test plant species were planted in Sun Gro MetroMix® 306 planting mixture, which typically has a pH of 6.0 to 6.8 and an organic matter content of about 30 percent, in plastic pots with a surface area of 103.2 square centimeters (cm^2). When required to ensure good germination and healthy plants, a fungicide treatment and/or other chemical or physical treatment was applied. The plants were grown for 7-36 days (d) in a greenhouse with an approximate 14-hour (h) photoperiod which was maintained at about 23° C. during the day and 22° C. during the night. Nutrients and water were added on a regular basis and supplemental lighting was provided with overhead metal halide 1000-Watt lamps as necessary. The plants were employed for testing when they reached the second or third true leaf stage.
Weighed amounts of technical material were dissolved in a volume of 97:3 volume per volume (v/v) acetone/dimethyl sulfoxide (DMSO) to stock solutions. […] The concentrated stock solutions were diluted with an aqueous mixture of 1.5% v/v of Agri-dex crop oil concentrate to provide the appropriate application rates. Compound requirements are based upon a 12 milliliter (mL) application volume at a rate of 187 liters per hectare (L/ha). […]
The treated plants and control plants were placed in a greenhouse as described above and watered by sub-irrigation to prevent wash-off of the test compounds. After 20-22 d, the condition of the test plants as compared with that of the control plants was determined visually and scored on a scale of 0 to 100 percent where 0 corresponds to no injury and 100 corresponds to complete kill. The condition of the test plants was compared with that of the control plants as determined visually and scored on a scale of 0 to 100 percent, where 0 corresponds to no injury and 100 corresponds to complete kill. […]
The safener cloquintocet-mexyl was combined with compound 1, compound 2, compound 4, compound 5, and compound 6, and applied to corn/maize (ZEAMX) and spring wheat (TRZAS) and the phytotoxicity of the herbicidal compositions was measured. […]

green foxtail (SETVI) = assay: Postemergence greenhouse trial, % visual injury on green foxtail; assay type: in vivo, Setaria viridis

Row | Compound | % visual injury, Ob (giant foxtail (SETFA)) | % visual injury, observed (Ob) (green foxtail (SETVI); compound 2 35 + CQC-m 0 g/ha) | % visual injury, observed (Ob) (green foxtail (SETVI); compound 2 70 + CQC-m 0 g/ha) | % visual injury, observed (Ob) (green foxtail (SETVI); compound 2 140 + CQC-m 0 g/ha)
1 | CCCCCC(C)OC(=O)COc1ccc(Cl)c2cccnc12 (stereo not shown) [CQC-m, cloquintocet-mexyl, reference compound] | 0% | – | – | –
2 | Nc1c(F)c(-c2ccc3cc[nH]c3c2F)nc(C(=O)OCc2ccccc2)c1Cl [compound 2] | – | 100% | 97% | 98%
